From patent US20010020007A1, “Vitamin preparations for reducing oxygen consumption during physical efforts” (priority 1996, published 2001) come the findings set out here.

Where “and” joins values, the source holds several entries; their conditions need not be identical. Identical values can stand only once.

One assay deals with individual B. Briefly: Ergometer study c): Preparations I-IV with sulphonylureas and/or glucocorticoids, 5 minutes before test (Example 39). In kind it is in vivo, human. The following applies: 125 W for 45 min, ingested 5 min before test, chlorpropamide 20 mg, glibornuride 1 mg, glibenclamide 100 μg, dexamethasone 20 μg, prednisolone 200 μg, Prep. one dose unit. On the procedure:
(§1) Analogously to Example 37, the following studies a) to c) were carried out on two male individuals, trained for endurance cycling and kept on a permanently carbohydrate-rich diet; individual A (weighing 67 kg) having a maximum oxygen uptake capacity of 3.3 l and an oxygen transport volume per heart beat of 29 ml (corresponding to 0.6 kJ), and individual B (weighing 74 kg) having a maximum oxygen uptake capacity of 4.5 l and an oxygen transport volume per heart beat of 36 ml (corresponding to 0.75 kJ) . The following preparations were used, in which the indicated amounts correspond to one dose unit and which were obtained by dissolving or suspending the components in water and gelling the mixture:
(§2) Prep. I: 10 mg of D-glucose, 1 mg of thiamine and 10 mg of ascorbic acid heated with 5 mg of agar-agar in 1 ml of water;
(§3) Prep. II: 25 mg of ethanol, 1 mg of thiamine and 50 μg of biotin heated with 5 mg of agar-agar in 1 ml of water;
Prep. III: 25 mg of ethanol, 250 μg of folic acid and 5 μg of cyanocobalamin heated with 5 mg of gelatin in 1 ml of water;
Prep. IV: 10 mg of H-Gly-Gly-OH, 300 μg of folic acid and 5 μg of cyanocobalamin heated 5 mg of gelatin in 1 ml of water.
(§4) H-Gly-Gly-OH was bought from Novabiochem, Läufelfingen, Switzerland. Insulin was injected subcutaneously, while the other medicaments were ingested alone or together with one of Preparations I-IV.
c) In a further test series, the effect of Preparations I-IV was tested when applied in combination with sulphonylurea derivatives and/or glucocorticoids immediately before the physical exercise. In these tests, individual B was subjected to a workload of 125 W (60 r.p.m.) for 45 minutes; the drugs and Preparations were ingested 5 minutes before the test.

For assay [1], the system named is male individuals A and B, trained for endurance cycling. Briefly: Ergometer study b): sulphonylureas, glucocorticoids, Preparation I and combinations, evening before test (Example 39). Conditions: individual A, 100 W for 25 min, before sleep, glibenclamide 2.5 mg, glibornuride 25 mg. In kind it is in vivo, human. On the procedure:
as §1, §2, §4
b) In a second study, antidiabetic sulphonyl urea derivatives, glucocorticoids, Preparation I and combinations thereof were administered before sleep, the evening before the tests. In the tests, individual A was subjected to a workload of 100 W (60 r.p.m.) for 25 minutes (tests A1-A9), and individual B was subjected to a workload of 175 W (60 r.p.m.) for 45 minutes (tests B10-B33).

For assay [2] the test system is unchanged. Briefly: Ergometer study a): insulin or sulphonylureas alone or with gelatin and/or Preparation I or II, 15 minutes before test (Example 39). In kind it is in vivo, human. Here is the method: as §1, §2, §3, §4
a) In a first study, insulin or antidiabetic sulphonylurea derivatives were applied, alone or in combination with gelatin and/or Preparation I or II, 15 minutes before the tests. In the tests, individual A was subjected to a workload of 100 W (60 r.p.m.) for 15 minutes (tests A1-A8), and individual B was subjected to a workload of 175 W (60 r.p.m.) for 10 minutes (tests B9-B29).

Assay [3] is described as follows: Stimulation of glycogen synthesis and anaerobic glucose breakdown in the muscle by other sugars (description). In kind it is in vivo. Conditions: even if taken together with vitamin B1 and vitamin C. The source says:
D-Maltose can replace the D-glucose in the preparation according to the invention and is even active in considerably lower amounts. […] The conversion of the sucrose or fructose to glucose, however, only takes place in the liver if they have been absorbed from the small intestine.

Setting [4] is: individual A, 100 W for 15 min, 2.5 mg glibenclamide 15 min before test.
[5] abbreviates: individual B, 175 W for 10 min, 15 min before test, 5 I.U. insulin s.c., glibenclamide 2.5 mg alone or 100 μg with gelatin, chlorpropamide 10 mg, gelatin 5 mg, Prep. one dose unit.

Consider `Cc1ccc(S(=O)(=O)NC(=O)N[C@H]2[C@H]3CC[C@@](C)([C@H]2O)C3(C)C)cc1` [glibornuride], for which, in the assay on individual B, the Heat production is listed as 2706 kJ, the Mean heart rate is listed as 132.2 per min and the Oxygen consumption was 130 L. In assay [1], the Heat production turned out to be 600 kJ, the Mean heart rate is listed as 100.0 per min and the Oxygen consumption was 29 L.

On to `COc1ccc(Cl)cc1C(=O)NCCc1ccc(S(=O)(=O)NC(=O)NC2CCCCC2)cc1` [glibenclamide], for which the Heat production was 2727 kJ in the assay on individual B; 687 kJ and 700 kJ and 679 kJ in assay [2] (setting [4]); 724 kJ and 698 kJ in assay [2] (setting [5]); 622 kJ and 613 kJ and 531 kJ in assay [1]. Besides, the Mean heart rate in the assay on individual B was 132.6 per min; in assay [2] (setting [4]), 136.4 per min. and 137.8 per min. and 135.4 per min; in assay [2] (setting [5]), 147.5 per min. and 145.1 per min; in assay [1], 101.5 per min. and 100.9 per min. and 95.4 per min. The Oxygen consumption in the assay on individual B was 131 L; in assay [2] (setting [4]), 33 liter (2×) and 34 liter; in assay [2] (setting [5]), 34 L; in assay [1], 30 liter (2×) and 26 liter.

For `O=C(CO)[C@@H](O)[C@H](O)[C@H](O)CO` [fructose], in assay [3], the “Stimulation of glycogen synthesis and of the anaerobic glucose breakdown in the muscle” value is given as “ineffective”.

In the case of `CCCNC(=O)NS(=O)(=O)c1ccc(Cl)cc1` [chlorpropamide], in the assay on individual B, the Heat production came out at 2717 kJ, the Mean heart rate is 132.5 per min and the Oxygen consumption turned out to be 130 L.

In the case of `OC[C@H]1O[C@@](CO)(O[C@H]2O[C@H](CO)[C@@H](O)[C@H](O)[C@H]2O)[C@@H](O)[C@@H]1O` [sucrose], the “Stimulation of glycogen synthesis and of the anaerobic glucose breakdown in the muscle” value in assay [3] is on record as “ineffective”.

Turning to insulin, the “Effect on heat production and oxygen consumption induced by constant physical work loads” value in assay [2] (applied 15 minutes before the test) is reported as “increase”. In addition, in assay [2] (setting [5]), the Heat production was 675 kJ and 696 kJ (2×); the Mean heart rate is 142.0 per min. and 144.8 per min. (2×); the Oxygen consumption was 32 liter and 33 liter (2×).
